Data published in patent US9616040B2 (priority 2016, dated 2017).
Values joined by “and” are separate entries in the source; they are usually repeats but may differ in a detail not shown here. Identical values can stand only once.

Assays:
[1] = administered in large quantities; cited from earlier work
[2] = In vitro resorption of bovine vertebral cortical bone sections (weight change after incubation)
Method: Fresh bovine vertebral bone was cut into 1-3 g sections with a diamond saw blade. Non-cortical medullary bone was trimmed from the cortical bone and the sections were dried while incubated for 12 hours at 37° C. and then weighed. […] Bone sections were then dried and reweighed.

[3] = citric acid 0.001M, pH 3.25, 37° C., 96 hours
[4] = citric acid 0.01M, pH 2.62, 37° C., 96 hours
[5] = citric acid 0.1M, pH 2.08, 37° C., 96 hours
[6] = citric acid 1M, pH 1.57, 37° C., 96 hours
[7] = sodium citrate 0.001M, pH 7.65, 37° C., 96 hours
[8] = sodium citrate 0.01M, pH 7.78, 37° C., 96 hours
[9] = sodium citrate 0.1M, pH 9.27, 37° C., 96 hours
[10] = sodium citrate 1M, pH 8.67, 37° C., 96 hours

## O=C(O)CC(O)(CC(=O)O)C(=O)O [Citrate]
[1]
  toxicity: non-toxic

## O=C(O)CC(O)(CC(=O)O)C(=O)O [Citric acid, citric acid]
[2]; [3]
  % change: +0.00349%
  Wt. change: +0.00432 g
[2]; [4]
  % change: −0.04435%
  Wt. change: -0.06128 g
[2]; [5]
  % change: −0.1198%
  Wt. change: -0.1916 g
[2]; [6]
  % change: −0.288%
  Wt. change: -0.4863 g
[2]; citric acid, 37° C., 96 hours
  dependence of bone resorption: pH dependent

## O=C([O-])CC(O)(CC(=O)[O-])C(=O)[O-].[Na+].[Na+].[Na+] [Sodium citrate, sodium citrate]
[2]; [7]
  % change: −0.00037%
  Wt. change: -0.00077 g
[2]; [8]
  % change: −0.01319%
  Wt. change: -0.03261 g
[2]; sodium citrate 0.1M, pH 9.27, 37° C.
  % change: −0.03159% and −0.00551%
[2]; [9]
  % change: −0.01116%
  Wt. change: -0.01593 g
[2]; sodium citrate 0.125M, pH 9.20, 37° C.
  % change: −0.00109% and −0.03799%
[2]; sodium citrate 0.15M, pH 9.16, 37° C.
  % change: −0.04659% and −0.05754%
[2]; sodium citrate 0.25M, pH 9.12, 37° C.
  % change: −0.00373% and −0.01174%
[2]; sodium citrate 0.55M, pH 8.68, 37° C.
  % change: −0.00196% and −0.01386%
[2]; [10]
  % change: −0.01873%
  Wt. change: -0.04881 g
[2]; sodium citrate, 37° C., 168 hours
  molarity of greatest resorption of bone: 0.15 M
